Test results reported in patent US7345078B2, “NF-κB inhibitors and uses thereof” (The Board of Trustees of Michigan State University, priority 2002, dated 2008).
Read-outs that look alike come from different tables or passages of the source. Marks after values point to notes of the source that are not given here.

What was measured:
NF-κB [1] = biological target: T1, NF-κB (Homo sapiens, UniProt P19838+Q04206); experiment: EMSA of nuclear NF-κB-DNA binding in nuclear extracts of PMA-stimulated Jurkat leukemia T-cells; assay type: cell-based; set-up: endogenous in cells; host or cells: Jurkat leukemia T-cells, clone E6-1 (ATCC), PMA-stimulated; nuclear extract
T1 sequence (Q04206 whole entry): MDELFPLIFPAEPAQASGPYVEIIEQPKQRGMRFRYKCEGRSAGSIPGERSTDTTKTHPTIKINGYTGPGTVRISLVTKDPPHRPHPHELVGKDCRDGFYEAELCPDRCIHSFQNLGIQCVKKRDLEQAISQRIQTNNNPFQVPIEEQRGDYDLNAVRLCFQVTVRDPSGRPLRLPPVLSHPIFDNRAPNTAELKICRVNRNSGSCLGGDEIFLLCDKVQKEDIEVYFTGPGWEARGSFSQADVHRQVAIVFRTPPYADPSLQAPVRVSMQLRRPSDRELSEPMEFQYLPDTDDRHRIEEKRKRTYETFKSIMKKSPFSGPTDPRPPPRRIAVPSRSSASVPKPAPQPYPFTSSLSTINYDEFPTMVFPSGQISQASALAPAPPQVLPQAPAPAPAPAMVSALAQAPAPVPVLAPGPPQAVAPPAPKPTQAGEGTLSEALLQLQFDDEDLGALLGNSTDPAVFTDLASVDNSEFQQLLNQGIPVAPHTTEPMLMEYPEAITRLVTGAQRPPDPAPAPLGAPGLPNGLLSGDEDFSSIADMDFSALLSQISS
T1 sequence (P19838 1-433 limits assumed): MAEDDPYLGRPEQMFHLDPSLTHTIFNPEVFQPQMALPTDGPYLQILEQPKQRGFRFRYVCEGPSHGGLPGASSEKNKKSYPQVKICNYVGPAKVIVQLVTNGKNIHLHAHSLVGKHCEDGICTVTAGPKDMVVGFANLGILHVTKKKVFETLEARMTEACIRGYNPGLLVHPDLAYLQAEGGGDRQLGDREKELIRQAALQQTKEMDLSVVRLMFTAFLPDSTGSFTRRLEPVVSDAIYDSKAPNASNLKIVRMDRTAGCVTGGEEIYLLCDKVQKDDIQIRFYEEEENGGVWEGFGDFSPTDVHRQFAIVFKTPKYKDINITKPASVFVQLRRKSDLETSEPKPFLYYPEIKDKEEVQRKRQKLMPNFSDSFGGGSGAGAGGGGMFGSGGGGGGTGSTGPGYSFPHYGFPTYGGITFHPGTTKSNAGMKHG
Procedure: (§1) All compounds were evaluated for their potential anti-inflammatory activity by examining the activity of NF-κB in vitro in nuclear extracts using the procedure from Breton and Charbot-Fletcher (Breton et al., J. Pharmacol. Exp. Ther. 282 459-466 (1997)). […] The Jurkat cells (1×10^7 cells/mL) are subsequently treated with various concentrations of imidazoline for 30 minutes at 37° C. followed by PMA stimulation (5.0 ng/mL) for an additional 5 hours. Nuclear extracts are incubated for 20 minutes with a double stranded Cy3 labeled NF-κB consensus oligonucleotide, 5′-[…]-3′ (SEQ ID NO:1) at room temperature. The crude mixture is loaded on a 5% non-denaturing polyacrylamide gel prepared in 1×Tris borate/EDTA buffer and electrophoresed at 200V for 2 hours. After electrophoresis the gel is analyzed using a phosphorimager (Biorad FX PLUS) for detection of the NF-κB-DNA binding.
EMSA assay for NF-κB-DNA binding was as follows. […] The Jurkat cells (1×10^6 cells/mL) were subsequently treated with various concentrations of the compounds for 30 minutes at 37° C. and 5% CO2 followed by PMA (50 ng/mL) and PHA ([…]) stimulation for an additional 30 minutes. The cells were harvested by centrifugation, washed in ice cold PBS and the nuclear extracts were prepared as previously described (Dignam, et al., Nucl. Acids Res 11: 1475-1489 (1983)). The protein concentration of the extracts was determined according to the Method of Bradford (1976) with BioRad reagents. Nuclear extracts are incubated for 20 minutes at room temperature with a double stranded Cy3 labeled NF-kB consensus oligonucleotide, 5′-[…] CCAGGC-3′ (SEQ ID NO:1). The binding mixture ([…]) contained 10 mM HEPES-NaOH pH 7.9, 4 mM tris-HCl, pH 7.9, 6.0 mM KCl, 1 mM EDTA, 1 mM DTT, 10% glycerol, 0.3 mg/mL bovide serum albumin and […] of poly (dI.dC). The binding mixtures ([…] of nuclear extract protein) were incubated for 20 minutes at room temrperature with 0.16 pmol of Cy3 labeled oligonucleotide. The mixture was loaded on a 4% polyacrylamide gel prepared in 1× tris borate/EDTA buffer and was electrophoresed at 200 V for 20 minutes. After electrophoresis the gel was analyzed using a phosphorimager (Biorad FX plus) for detection of the NF-kB—DNA binding.

NF-κB [2] = biological target: T1, NF-κB; experiment: IC50 values in Mammalian Jurkat cells Leukemia T cells; assay type: cell-based; set-up: endogenous in cells; host or cells: Jurkat leukemia T-cells, clone E6-1 (ATCC), PMA-stimulated; nuclear extract; details: concentration at which 50% of the protein/enzyme is inhibited in cells
Procedure: as §1
IC50 values in Mammalian Jurkat cells Leukemia T cells: IC50 value is defined as the concentration of compounds at which 50% of the protein/enzyme is inhibited in cells (Table 3).

CEM cells = details: for sensitization of CEM cells towards camptothecin: camptothecin 0.1 μM
Procedure: Imidazolines 28-33 were evaluated for their ability to enhance the activity of camptothecin in CEM cells. Induction of apoptosis is the hallmark of most chemotherapeutic agents including camptothecin. The systematic disassembly of apoptotic cells is accomplished by active caspases (Thornberry et al., Nature 356: 768-774 (1992); Nicholson et al., Trends Biochem. Sci. 22: 299-306 (1997)). A standard apoptosis assay is Promega's APO-ONE homogeneous caspase-3/7 assay, which takes advantage of this caspase activity to directly quantify the induction of apoptosis in cells (Thornberry et al., Nature 356: 768-774 (1992); Nicholson et al., Trends Biochem. Sci. 22: 299-306 (1997)). According to the hypothesis that NF-κB inhibition should enhance the activity of chemotherapeutic agents via the inhibition of anti-apoptotic signaling pathway—thus enhancement of apoptosis—(Boland, Biochem Soc Trans 29: 674-678 (2001); Chiao et al., Cancer 95: 1696-1705 (2002)), we investigated the effects of the imidazolines using this caspase-3/7 assay. This assay quantifies the level of apoptotic cell death induced by camptothecin with and without the imidazolines and will establish the direct level of enhancement of apoptosis by camptothecin.
Induction of apoptosis using caspase 3/7 assay was as follows. CEM cells (CCRF-CEM); Amer. Type Culture Collection, Rockville, Md.) were grown in RPMI-1640 Media (Gibco-BRL, Rockville, Md.) supplemented with 10% fetal bovine serum, penicillin (614 ηg/mL), streptomycin (10 μg/mL) and hepes buffer, pH 7.2 at 37° C., 5% CO2. DMSO was used as the vector for all drugs and added in the control experiments. Cell cultures were treated with 1 μM, 0.1 μM or 10 nM of the imidazolines and allowed to incubate at 37° C., 5% CO2. An aliquote was transferred to a 96-well plate and mixed with an equal volume of Apo-ONE™ Homogenous Caspase-3/7 assay (Promega Corporation) reagent. The contents of the plate were gently mixed and allowed to incubate for 1 hour. The fluorescence of each well was then measured on a Molecular Imager FX Pro at 532 nm. All reported data was the average of two independent experiments unless otherwise indicated.

RIF-1 murine tumor = experiment: RIF-1 murine model of tumor growth delay; assay type: in vivo, mice; details: for Days Delay (tumor growth delay) / Median (days to 4x) / Days to 4x (Ave ±SE) / T/C (ratio of Days to 4x of treated over untreated controls): IP, imidazoline 100 mg/kg, cis-platin 4 mg/kg, camptothecin 6 mg/kg; for Median (days to 4x): untreated 7.0; for Days to 4x (Ave ±SE): untreated 7.3 ± 0.6; for chemopotentiation of camptothecin: combinational treatment with camptothecin (CPT); for chemopotentiation of camptothecin / chemopotentiation of cis-platin: RIF-1 tumors in mice; for chemopotentiation of cis-platin: combinational treatment with cis-platin (CDDP)
Procedure: Tumor cells were injected, bilaterally, into the backs of mice. When tumors reached 100 mm^3, the mice were treated with an intraperitoneal injection of the compound. Tumor volumes were measured 3 times a week until they reached 4 times the size they were on the first treatment day. Data is recorded as “Days to 4×’ or ratio of ‘Days to 4×” of the treated over untreated controls.

[3] = IP, doses 5.0 and 50 mg/kg
Procedure: Prior to the combinatorial studies, the toxicity of the compounds was determined in the mouse model. […] In short, the drugs are dissolved in DMSO and 100 μL given to the mice on day 0 by intraperitoneal injection (IP). […] Weight and death were the two measures of toxicity.

NF-κB [4] = biological target: T1, NF-κB; experiment: EMSA of camptothecin activated NF-κB in CEM leukemia T-cells; assay type: cell-based; set-up: endogenous in cells; nuclear extract; details: camptothecin 10 μM to 10 nM, 2 hours
Procedure: CEM cells were incubated with and without varying concentrations of camptothecin (CPT). Positive controls included PMA/PHA activation (FIG. 11, lane 2). Lane 3 included a positive control using PMA/PHA activation followed by the treatment of the extract with a NF-κB p65 antibody to unambiguously identify the NF-κB/DNA complex.
CEM cells were treated with various concentration of imidazoline 32, 30 minutes prior to activation by camptothecin (0.1 μM). […] Control lanes include: DNA only (lane 1), PMA/PHA activated NF-κB (lane 2), PMA/PHA activated NF-κB treated with a p65 antibody, which provide a supershift (lane 3) and the unactivated control (lane 4).
EMSA assay for NF-κB-DNA binding was as follows. […] The cells were harvested by centrifugation, washed in ice cold PBS and the nuclear extracts were prepared as previously described (Dignam, et al., Nucl. Acids Res 11: 1475-1489 (1983)). The protein concentration of the extracts was determined according to the Method of Bradford (1976) with BioRad reagents. Nuclear extracts are incubated for 20 minutes at room temperature with a double stranded Cy3 labeled NF-kB consensus oligonucleotide, 5′-[sequence] […] The binding mixture (25 mL) contained 10 mM HEPES-NaOH pH 7.9, 4 mM tris-HCl, pH 7.9, 6.0 mM KCl, 1 mM EDTA, 1 mM DTT, 10% glycerol, 0.3 mg/mL bovide serum albumin and 1 mg of poly (dI.dC). The binding mixtures (10 mg of nuclear extract protein) were incubated for 20 minutes at room temrperature with 0.16 pmol of Cy3 labeled oligonucleotide. The mixture was loaded on a 4% polyacrylamide gel prepared in 1× tris borate/EDTA buffer and was electrophoresed at 200 V for 20 minutes. After electrophoresis the gel was analyzed using a phosphorimager (Biorad FX plus) for detection of the NF-kB—DNA binding.

## O=C(O)C1(Cc2c[nH]c3ccccc23)N=C(c2ccccc2)N(Cc2ccccc2)C1c1ccccc1 (racemic) [Compound 5, Dl-(3S,4S)-1-Benzyl-4-(1H-indol-3-ylmethyl)-2,5-diphenyl-4,5-dihydro-1H-imidazole-4-carboxylic acid]
NF-κB [1]; compound 1.0 μM
  % inhibition of NF-κB: 0%

## COc1ccc([C@@H]2N(Cc3ccccc3)C(c3ccccc3)=N[C@]2(C)C(=O)O)cc1 (racemic) [Compound 2, Dl-(3S,4S)-1-Benzyl-5-(4-methoxyphenyl)-4-methyl-2-phenyl-4,5-dihydro-1H-imidazole-4-carboxylic acid]
NF-κB [2]
  IC50: 40 nM
NF-κB [1]; compound 1.0 μM
  inhibition at 1 µM: 68%

## CCOC(=O)C1(C)N=C(c2ccccc2)N(Cc2ccccc2)C1c1ccccc1 (racemic) [Compound 10, Dl-(3S,4S)-1-Benzyl-4-methyl-2,5-diphenyl-4,5-dihydro-1H-imidazole-4-carboxylic acid ethyl ester]
NF-κB [1]; compound 0.1 μM (100 nM)
  % inhibition of NF-κB: 22%

## CCOC(=O)[C@H]1N(c2ccc(F)cc2)C(c2ccccc2)=N[C@@]1(C(=O)O)c1ccccc1 (racemic) [Compound 30, dl-(4S,5S)-1-(4-Fluorophenyl)-2,4-diphenyl-4,5-dihydro-1H-imidazole-4,5-dicarboxylic acid 5-ethyl ester]
CEM cells
  Apoptosis (±S.D.): 1.18 ± 0.20
CEM cells; 0.01 μM imidazoline
  sensitization of CEM cells towards camptothecin: sensitization
CEM cells; 0.1 μM imidazoline
  sensitization of CEM cells towards camptothecin: sensitization
CEM cells; 1 μM imidazoline
  sensitization of CEM cells towards camptothecin: sensitization

## CCOC(=O)[C@H]1N(c2ccc(F)cc2)C(c2ccccc2)=N[C@]1(C)C(=O)O (racemic) [Compound 29, dl-(4S,5S)-1-(4-Fluorophenyl)-4-methyl-2-phenyl-4,5-dihydro-1H-imidazole-4,5-dicarboxylic acid 5-ethyl ester]
CEM cells; Compound 1.0 μm alone, T-cells, 48 hour period, cells only = 1.00 (normalized)
  Apoptosis (±S.D.): 0.95 ± 0.24

## CCOC(=O)[C@H]1N(c2ccc(F)cc2)C(c2ccccc2)=N[C@]1(C)C(=O)O (racemic) [Compound 8, Dl-(3S,4S)-1-(4-Fluorophenyl)-4-methyl-2-phenyl-4,5-dihydro-1H-imidazole-4,5-dicarboxylic acid 5-ethyl ester]
NF-κB [1]; compound 0.1 μM (100 nM)
  % inhibition of NF-κB: 88%
NF-κB [1]; compound 1.0 μM
  % inhibition of NF-κB: 94%

## C[C@]1(C(=O)O)N=C(c2ccccc2)N(Cc2ccccc2)[C@H]1c1ccccc1 (racemic) [Compound 1, Dl-(3S,4S)-1-Benzyl-4-methyl-2,5-diphenyl-4,5-dihydro-1H-imidazole-4-carboxylic acid]
NF-κB [2]
  IC50: 1950 nM
NF-κB [1]; compound 1.0 μM
  inhibition at 1 µM: 19%
RIF-1 murine tumor
  Days Delay (tumor growth delay): -0.57 days
  Median (days to 4x): 6.4 days
  Days to 4x (Ave ±SE): 6.5 ± 0.3 days
  chemopotentiation of camptothecin: no significant chemopotentiation
  chemopotentiation of cis-platin: no significant chemopotentiation

## C[C@]1(C(=O)O)N=C(c2ccccc2)N(Cc2ccccc2)[C@H]1c1ccccc1 (racemic) [Compound 33, dl-(4S,5S)-1-Benzyl-4-methyl-2,5-diphenyl-4,5-dihydro-1H-imidazole-4-carboxylic acid]
[3]
  tolerability in mice: well tolerated

## N.N.[Cl][Pt][Cl] [Cis-platin, cis-platin, reference compound]
RIF-1 murine tumor
  Days Delay (tumor growth delay): 0.82 days
  T/C (ratio of Days to 4x of treated over untreated controls): 1.1
  Median (days to 4x): 7.8 days
  Days to 4x (Ave ±SE): 8.1 ± 0.4 days

## C[C@]1(C(=O)O)N=C(c2ccccc2)N(c2ccc(F)cc2)[C@H]1c1ccccc1 (racemic) [Compound 3, Dl-(3S,4S)-1-(4-Fluorophenyl)-4-methyl-2,5-diphenyl-4,5-dihydro-1H-imidazole-4-carboxylic acid]
NF-κB [2]
  IC50: 6.5 nM
NF-κB [1]; compound 1.0 μM
  inhibition at 1 µM: 35%
RIF-1 murine tumor
  Days Delay (tumor growth delay): -0.20 days
  Median (days to 4x): 6.8 days
  Days to 4x (Ave ±SE): 7.6 ± 1.0 days
  chemopotentiation of camptothecin: no significant chemopotentiation
  chemopotentiation of cis-platin: no significant chemopotentiation

## CC[C@@]1(O)C(=O)OCc2c1cc1n(c2=O)Cc2cc3ccccc3nc2-1 [Camptothecin, camptothecin, reference compound]
NF-κB [4]
  NF-κB/DNA binding due to NF-κB activation: significant amount of NF-κB/DNA binding
CEM cells; CEM cells, imidazoline 1.0 μM + CPT 0.1 μM versus CPT 0.1 μM
  Fold enhancement of camptothecin (0.1 μM) after 48 hours: 1.00
RIF-1 murine tumor
  Days Delay (tumor growth delay): 3.79 days
  T/C (ratio of Days to 4x of treated over untreated controls): 1.4
  Median (days to 4x): 10.8 days
  Days to 4x (Ave ±SE): 10.3 ± 0.6 days

## C[C@]1(C(=O)O)N=C(c2ccccc2)N(Cc2ccccc2)[C@H]1c1ccncc1 (racemic) [Compound 31, dl-(4S,5S)-1-Benzyl-4-methyl-2-phenyl-5-pyridin-4yl-4,5-dihydro-1H-imidazole-4-carboxylic acid]
CEM cells
  Apoptosis (±S.D.): 1.18 ± 0.00^b
CEM cells; 0.01 μM imidazoline
  sensitization of CEM cells towards camptothecin: sensitization
CEM cells; 0.1 μM imidazoline
  sensitization of CEM cells towards camptothecin: sensitization
CEM cells; 1 μM imidazoline
  sensitization of CEM cells towards camptothecin: sensitization

## CCOC(=O)[C@@]1(C)N=C(c2ccccc2)N(Cc2ccccc2)[C@H]1c1ccncc1 (racemic) [Compound 9, Dl-(3S,4S)-1-Benzyl-4-methyl-2-phenyl-5-pyridin-4-yl-4,5-dihydro-1H-imidazole-4-carboxylic acid ethyl ester]
NF-κB [1]; compound 0.1 μM (100 nM), 0.1 µM
  % inhibition of NF-κB: 71%
